Measured values published in ChEMBL document CHEMBL5303573, “Mapping human microbiome drug metabolism by gut bacteria and their genes” (Nature, 2019).

Experiments:
[1] = The drug is tested on Bifidobacterium ruminantium strain: fecal isolate for biotransformation. The drug concentrations were measured before and after a 12-h incubation by liquid-chromatography-coupled mass spectrometry (LC–MS); conditions: 2 µM
[2] = The drug is tested on Enterobacter cancerogenus strain: ATCC35316 for biotransformation. The drug concentrations were measured before and after a 12-h incubation by liquid-chromatography-coupled mass spectrometry (LC–MS); conditions: 2 µM
[3] = The drug is tested on Ruminococcus gnavus strain: ATCC29149 for biotransformation. The drug concentrations were measured before and after a 12-h incubation by liquid-chromatography-coupled mass spectrometry (LC–MS); conditions: mediterraneibacter gnavus, 2 µM
[4] = The drug is tested on Bacteroides cellulosilyticus strain: DSM14838 for biotransformation. The drug concentrations were measured before and after a 12-h incubation by liquid-chromatography-coupled mass spectrometry (LC–MS); conditions: 2 µM
[5] = The drug is tested on Clostridium sp. strain: fecal isolate for biotransformation. The drug concentrations were measured before and after a 12-h incubation by liquid-chromatography-coupled mass spectrometry (LC–MS); conditions: 2 µM
[6] = The drug is tested on Blautia hansenii strain: DSM20583 for biotransformation. The drug concentrations were measured before and after a 12-h incubation by liquid-chromatography-coupled mass spectrometry (LC–MS); conditions: 2 µM
[7] = anaerostipes sp., 12 h, 2 µM
Description: The drug is tested on Anaerostipes sp. strain: fecal isolate for biotransformation. The drug concentrations were measured before and after a 12-h incubation by liquid-chromatography-coupled mass spectrometry (LC–MS)

[8] = bacteroides stercoris, 12 h, 2 µM
Description: The drug is tested on Bacteroides stercoris strain: ATCC43183 for biotransformation. The drug concentrations were measured before and after a 12-h incubation by liquid-chromatography-coupled mass spectrometry (LC–MS)

[9] = enterocloster bolteae, 12 h, 2 µM
Description: The drug is tested on Clostridium bolteae strain: ATCCBAA-613 for biotransformation. The drug concentrations were measured before and after a 12-h incubation by liquid-chromatography-coupled mass spectrometry (LC–MS)

[10] = bacteroides fragilis, 12 h, 2 µM
Description: The drug is tested on Bacteroides fragilis strain: DS-208 for biotransformation. The drug concentrations were measured before and after a 12-h incubation by liquid-chromatography-coupled mass spectrometry (LC–MS)

[11] = roseburia intestinalis, 12 h, 2 µM
Description: The drug is tested on Roseburia intestinalis strain: L1-82 for biotransformation. The drug concentrations were measured before and after a 12-h incubation by liquid-chromatography-coupled mass spectrometry (LC–MS)

[12] = The drug is tested on Clostridium symbiosum strain: ATCC14940 for biotransformation. The drug concentrations were measured before and after a 12-h incubation by liquid-chromatography-coupled mass spectrometry (LC–MS); conditions: 2 µM
[13] = The drug is tested on Bacteroides ovatus strain: ATCC8483 for biotransformation. The drug concentrations were measured before and after a 12-h incubation by liquid-chromatography-coupled mass spectrometry (LC–MS); conditions: 2 µM
[14] = The drug is tested on Edwardsiella tarda strain: ATCC23685 for biotransformation. The drug concentrations were measured before and after a 12-h incubation by liquid-chromatography-coupled mass spectrometry (LC–MS); conditions: 2 µM
[15] = The drug is tested on Bacteroides pectinophilus strain: ATCC43243 for biotransformation. The drug concentrations were measured before and after a 12-h incubation by liquid-chromatography-coupled mass spectrometry (LC–MS); conditions: 2 µM
[16] = bacteroides thetaiotaomicron, 12 h, 2 µM
Description: The drug is tested on Bacteroides thetaiotaomicron strain: 7330 for biotransformation. The drug concentrations were measured before and after a 12-h incubation by liquid-chromatography-coupled mass spectrometry (LC–MS)

[17] = segatella copri, 12 h, 2 µM
Description: The drug is tested on Prevotella copri strain: DSM18205 for biotransformation. The drug concentrations were measured before and after a 12-h incubation by liquid-chromatography-coupled mass spectrometry (LC–MS)

[18] = The drug is tested on Bacteroides vulgatus strain: ATCC8482 for biotransformation. The drug concentrations were measured before and after a 12-h incubation by liquid-chromatography-coupled mass spectrometry (LC–MS); conditions: phocaeicola vulgatus, 2 µM
[19] = The drug is tested on Ruminococcus torques strain: ATCC27756 for biotransformation. The drug concentrations were measured before and after a 12-h incubation by liquid-chromatography-coupled mass spectrometry (LC–MS); assay type: ADME; set-up: dose 2 uM, timepoint 0 vs 12 hours; conditions: 2 µM

Compound | Bacterial Biotransformation [1] | Bacterial Biotransformation [2] | Bacterial Biotransformation [3] | Bacterial Biotransformation [4] | Bacterial Biotransformation [5] | Bacterial Biotransformation [6] | Bacterial Biotransformation [7] | Bacterial Biotransformation [8] | Bacterial Biotransformation [9] | Bacterial Biotransformation [10] | Bacterial Biotransformation [11] | Bacterial Biotransformation [12] | Bacterial Biotransformation [13] | Bacterial Biotransformation [14] | Bacterial Biotransformation [15] | Bacterial Biotransformation [16] | Bacterial Biotransformation [17] | Bacterial Biotransformation [18] | Bacterial Biotransformation [19]
NS(=O)(=O)c1cc2c(cc1Cl)N=C(CSCc1ccccc1)NS2(=O)=O [BENZTHIAZIDE] | Compound NOT metabolized | Compound NOT metabolized | Compound NOT metabolized | Compound NOT metabolized | Compound metabolized | Compound metabolized | Compound NOT metabolized | Compound NOT metabolized | Compound NOT metabolized | Compound NOT metabolized | Compound NOT metabolized | Compound NOT metabolized | Compound NOT metabolized | Compound NOT metabolized | Compound NOT metabolized | Compound NOT metabolized | Compound NOT metabolized | – | –
CCOC(=O)[C@H](CCc1ccccc1)N[C@@H](C)C(=O)N1Cc2ccccc2C[C@H]1C(=O)O | Compound metabolized | Compound NOT metabolized | Compound NOT metabolized | Compound metabolized | Compound metabolized | Compound metabolized | Compound NOT metabolized | Compound metabolized | Compound NOT metabolized | Compound metabolized | Compound NOT metabolized | Compound metabolized | – | Compound NOT metabolized | Compound metabolized | Compound metabolized | Compound metabolized | Compound metabolized | Compound NOT metabolized
CCCC1O[C@@H]2C[C@H]3[C@@H]4CCC5=CC(=O)C=C[C@]5(C)[C@H]4[C@@H](O)C[C@]3(C)[C@]2(C(=O)CO)O1 (some centres undefined) [BUDESONIDE] | Compound NOT metabolized | Compound NOT metabolized | Compound NOT metabolized | Compound NOT metabolized | Compound metabolized | Compound metabolized | Compound NOT metabolized | Compound metabolized | Compound NOT metabolized | – | – | Compound NOT metabolized | Compound NOT metabolized | Compound NOT metabolized | Compound NOT metabolized | Compound NOT metabolized | Compound NOT metabolized | Compound metabolized | Compound NOT metabolized
CCCC(C)(COC(N)=O)COC(=O)NC(C)C (centres undefined) [CARISOPRODOL] | Compound NOT metabolized | Compound NOT metabolized | Compound NOT metabolized | Compound metabolized | Compound metabolized | Compound metabolized | Compound NOT metabolized | Compound metabolized | Compound NOT metabolized | Compound metabolized | Compound metabolized | Compound NOT metabolized | – | – | Compound metabolized | Compound metabolized | Compound metabolized | Compound metabolized | Compound NOT metabolized
CCOC(=O)[C@H](CCc1ccccc1)N[C@H]1CCc2ccccc2N(CC(=O)O)C1=O [BENAZEPRIL] | Compound NOT metabolized | Compound NOT metabolized | Compound NOT metabolized | Compound NOT metabolized | Compound NOT metabolized | Compound NOT metabolized | Compound NOT metabolized | Compound metabolized | Compound NOT metabolized | Compound metabolized | Compound metabolized | Compound NOT metabolized | Compound metabolized | Compound NOT metabolized | Compound NOT metabolized | Compound metabolized | Compound metabolized | Compound metabolized | Compound NOT metabolized
CN1CCN(C2=Nc3cc(Cl)ccc3Nc3ccccc32)CC1 [CLOZAPINE] | Compound NOT metabolized | Compound NOT metabolized | Compound NOT metabolized | Compound NOT metabolized | Compound NOT metabolized | Compound NOT metabolized | Compound NOT metabolized | Compound NOT metabolized | Compound NOT metabolized | Compound NOT metabolized | – | Compound NOT metabolized | Compound NOT metabolized | Compound NOT metabolized | Compound NOT metabolized | Compound NOT metabolized | Compound NOT metabolized | Compound NOT metabolized | Compound NOT metabolized
NC12CC3CC(CC(C3)C1)C2 [AMANTADINE] | Compound metabolized | Compound NOT metabolized | Compound NOT metabolized | Compound metabolized | Compound NOT metabolized | Compound NOT metabolized | Compound NOT metabolized | Compound NOT metabolized | Compound NOT metabolized | Compound metabolized | Compound NOT metabolized | Compound NOT metabolized | Compound NOT metabolized | Compound NOT metabolized | Compound NOT metabolized | Compound metabolized | Compound NOT metabolized | Compound NOT metabolized | Compound NOT metabolized
CC(C)(C#N)c1cc(Cn2cncn2)cc(C(C)(C)C#N)c1 [ANASTROZOLE] | Compound metabolized | Compound NOT metabolized | Compound NOT metabolized | Compound NOT metabolized | Compound metabolized | Compound metabolized | Compound NOT metabolized | Compound metabolized | Compound NOT metabolized | Compound NOT metabolized | Compound NOT metabolized | Compound NOT metabolized | Compound metabolized | Compound NOT metabolized | Compound NOT metabolized | Compound metabolized | Compound metabolized | Compound metabolized | Compound NOT metabolized
